Results: article PMC10913484, “Hydroxyhexylitaconic acids as potent IMP-type metallo-β-lactamase inhibitors for controlling carbapenem resistance in Enterobacterales” (Microbiology Spectrum, 2024)
Converted amounts (≈) assume the structure as drawn. Like-named read-outs stand apart in the source and are kept apart here.

Columns and labels:
E. coli DH5α pBC-IMP-1 = test: Susceptibility test (microdilution), transformant; format: cell-based; conditions: Escherichia coli, read-out: MPM MIC, +agent 100 μg/mL
Procedure: (§1) Susceptibility testing, based on the microdilution method, was performed according to the guidelines of the Clinical and Laboratory Standards Institute ([36]).

E. coli DH5α pBC-NDM-1 = test: Susceptibility test (microdilution), transformant; format: cell-based; conditions: for MPM MIC: E. coli DH5α pBC-NDM-1
Procedure: as §1

E. coli DH5α pCL-SMB-1 = test: Susceptibility test (microdilution), transformant; format: cell-based; conditions: E. coli DH5α pCL-SMB-1
Procedure: as §1

IMP-6 = molecular target: T1, IMP-6 (Serratia marcescens, UniProt P52699, S214G); test: In vitro inhibition assay (IPM hydrolysis); format: biochemical
T1 construct: made in house
T1 sequence (P52699 19-246 S214G): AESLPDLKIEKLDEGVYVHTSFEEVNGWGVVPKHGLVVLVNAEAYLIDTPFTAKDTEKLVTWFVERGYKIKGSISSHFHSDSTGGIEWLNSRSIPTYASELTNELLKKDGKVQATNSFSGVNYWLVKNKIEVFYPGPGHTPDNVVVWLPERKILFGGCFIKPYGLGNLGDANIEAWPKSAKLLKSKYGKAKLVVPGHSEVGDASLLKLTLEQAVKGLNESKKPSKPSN
Procedure: (§2) MBLs were incubated with HHIAs in 20 mM HEPES buffer (pH 7.5) containing 200 mM NaCl and 50 µg/mL BSA at 30°C for 5 min. IPM was added at a concentration of 100 µM, and the rate of IPM hydrolysis was monitored at 297 nm. The initial velocity (v0) rates were plotted against HHIA’s logarithmic concentrations, and the data were fitted to a four-parameter variable slope to obtain the half-maximal inhibitor concentration (IC50) values using GraphPad Prism 9 software (GraphPad Software). The inhibition constant (Ki) was determined as follows: v0 was measured after varying the concentrations of IPM and HHIAs, and inverse v0 (1/v0) was plotted against the inverse IPM concentration [1/(IPM)]. Lineweaver–Burk plots were created to obtain Ki values under the competitive inhibition model using the SigmaPlot 14 suite (Hulinks).

IMP-1 [1] = molecular target: T2, IMP-1 (Serratia marcescens, UniProt P52699); test: In vitro inhibition assay (IPM hydrolysis); format: biochemical
T2 construct: made in house
T2 sequence (P52699 19-246, looked up, species assumed): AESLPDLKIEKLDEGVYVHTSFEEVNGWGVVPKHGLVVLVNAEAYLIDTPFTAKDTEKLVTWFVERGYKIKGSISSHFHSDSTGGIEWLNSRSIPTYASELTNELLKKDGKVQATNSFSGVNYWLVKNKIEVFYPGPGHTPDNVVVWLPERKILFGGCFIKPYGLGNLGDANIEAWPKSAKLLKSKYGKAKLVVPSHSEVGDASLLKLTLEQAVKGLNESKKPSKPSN
Procedure: as §2

NDM-1 = molecular target: T3, NDM-1 (Klebsiella pneumoniae, UniProt C7C422); test: In vitro inhibition assay (IPM hydrolysis); format: biochemical; conditions: even at high doses (100 µM)
T3 construct: made in house
T3 sequence (C7C422 29-270 limits assumed): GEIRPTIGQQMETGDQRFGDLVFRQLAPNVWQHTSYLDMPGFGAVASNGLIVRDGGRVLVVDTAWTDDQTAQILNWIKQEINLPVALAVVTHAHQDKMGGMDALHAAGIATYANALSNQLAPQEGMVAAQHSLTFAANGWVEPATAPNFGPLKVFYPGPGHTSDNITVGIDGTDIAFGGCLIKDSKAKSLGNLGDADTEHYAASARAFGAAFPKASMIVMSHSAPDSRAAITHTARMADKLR
Procedure: as §2

VIM-2 = molecular target: T4, VIM-2 (Escherichia coli, UniProt Q5U7L7); test: In vitro inhibition assay (IPM hydrolysis); format: biochemical
T4 construct: made in house
Procedure: as §2

SMB-1 = test: In vitro inhibition assay (IPM hydrolysis); format: biochemical; conditions: even at high doses (100 µM)
Procedure: as §2

[2] = system: K. pneumoniae AR0076 (VIM-1); test: Susceptibility test, clinical isolate; format: cell-based; conditions: Klebsiella pneumoniae
Procedure: as §1

E. coli 465 (IMP-1) = test: Susceptibility test, clinical isolate; format: cell-based; conditions: Escherichia coli
Procedure: as §1

[3] = system: P. penneri E11-M475 (IMP-1); test: Susceptibility test, clinical isolate; format: cell-based; conditions: Proteus penneri
Procedure: as §1

[4] = system: E. cloacae NUBL-5 (IMP-1); test: Susceptibility test, clinical isolate; format: cell-based; conditions: Enterobacter cloacae
Procedure: as §1

[5] = system: K. pneumoniae NUBL-23 (IMP-6); test: Susceptibility test, clinical isolate; format: cell-based; conditions: Klebsiella pneumoniae
Procedure: as §1

[6] = system: K. pneumoniae MS5674 (NDM-1/VIM-1); test: Susceptibility test, clinical isolate; format: cell-based; conditions: Klebsiella pneumoniae
Procedure: as §1

E. coli NUBL-22 (IMP-6) = test: Susceptibility test, clinical isolate; format: cell-based; conditions: Escherichia coli
Procedure: as §1

[7] = system: K. pneumoniae AR0034 (IMP-4); test: Susceptibility test, clinical isolate; format: cell-based; conditions: Klebsiella pneumoniae, K. pneumoniae AR0034 (IMP-4)
Procedure: as §1

E. coli NUBL-24 (IMP-1) = test: Susceptibility test, clinical isolate; format: cell-based; conditions: Escherichia coli
Procedure: as §1

IMP-1 [8] = molecular target: T2, IMP-1; format: biochemical; conditions: IMP-1 with agent (5 mM stock), dialysis
Procedure: A total of 5 µL of IMP-1 (100 µM) and 2 µL of EDTA (5 mM) or HHIA (5 mM) were mixed in 100 µL of 20 mM HEPES buffer (pH 7.5) pretreated with Chelex 100 resin (Bio-Rad) and incubated on ice for 30 min. The samples were dialyzed against ultrapure water at 4°C for 6 h using Slide-A-Lyzer Dialysis Cassettes (cutoff, 3.5 K) (Thermo Fisher Scientific) and treated with proteinase K (FUJIFILM Wako Pure Chemical Corporation) at 37°C for 1 h. The zinc concentration in the samples was determined using a Zinc Assay Kit (MG Metallogenics).

[9] = +HHIA 6.25 µg/mL, read-out: IPM MIC
[10] = +HHIA 6.25 μg/mL, read-out: MPM MIC
[11] = +HHIA 25 µg/mL, read-out: IPM MIC
[12] = +HHIA 25 μg/mL, read-out: MPM MIC
[13] = +HHIA 100 µg/mL, read-out: IPM MIC
[14] = +HHIA 100 μg/mL, read-out: MPM MIC

In the case of C=C(C(=O)O)C(CCCCC(C)O)C(=O)O (centres unmarked) [9-HHIA, 9-hydroxyhexylitaconic acid], the MIC (E. coli DH5α pBC-IMP-1) is reported as 0.125 µg/mL (≈ 0.543 µM), the “MPM MIC” value (E. coli DH5α pBC-NDM-1; +agent 25 μg/mL) is reported as 64 µg/mL and the “MPM MIC” value (E. coli DH5α pBC-NDM-1; +agent 100 μg/mL) is reported as 64 µg/mL. For the same compound, the MIC (E. coli DH5α pBC-NDM-1; Escherichia coli, read-out: MPM MIC) was 64 µg/mL (≈ 278 µM), the “MPM MIC” value (E. coli DH5α pCL-SMB-1; +agent 25 μg/mL) was 32 µg/mL and the “MPM MIC” value (E. coli DH5α pCL-SMB-1; +agent 100 μg/mL) was 32 µg/mL. The Ki (IMP-6) was 27.8 µM, the IC50 (IMP-1 [1]) was 50.5 µM and the Ki (IMP-1 [1]) was 11.1 µM. For the same compound, the “Inhibition mode for IMP-1” value (IMP-1 [1]; Lineweaver–Burk plots) was “competitive inhibitors”, the “Inhibition of hydrolyzing activity of NDM-1” value (NDM-1) was “did not inhibit” and the “Inhibitory activity against VIM-2” value (VIM-2) was “moderate”. The “Inhibition of hydrolyzing activity of SMB-1” value (SMB-1) was “did not inhibit”, the MIC [2, 9] was 32 µg/mL (≈ 139 µM) and the MIC [2, 10] was 32 µg/mL (≈ 139 µM). The MIC [2, 11] was 32 µg/mL (≈ 139 µM), the MIC [2, 12] was 32 µg/mL (≈ 139 µM) and the MIC [2, 13] was 32 µg/mL (≈ 139 µM). For the same compound, the MIC [2, 14] was 32 µg/mL (≈ 139 µM), the MIC (E. coli 465 (IMP-1); [9]) was 16 µg/mL (≈ 69.5 µM) and the MIC (E. coli 465 (IMP-1); [10]) was 32 µg/mL (≈ 139 µM). The MIC (E. coli 465 (IMP-1); [11]) was 8 µg/mL (≈ 34.7 µM), the MIC (E. coli 465 (IMP-1); [12]) was 8 µg/mL (≈ 34.7 µM) and the MIC (E. coli 465 (IMP-1); [13]) was 2 µg/mL (≈ 8.69 µM). For the same compound, the MIC (E. coli 465 (IMP-1); [14]) was 0.5 µg/mL (≈ 2.17 µM), the MIC [3, 9] was > 64 µg/mL and the MIC [3, 10] was > 64 µg/mL. The MIC [3, 11] was > 64 µg/mL, the MIC [3, 12] was > 64 µg/mL and the MIC [3, 13] was > 64 µg/mL. For the same compound, the MIC [3, 14] was 32 µg/mL (≈ 139 µM), the MIC [4, 9] was 8 µg/mL (≈ 34.7 µM) and the MIC [4, 10] was 16 µg/mL (≈ 69.5 µM). It also gave an MIC [4, 11] of 4 µg/mL (≈ 17.4 µM), an MIC [4, 12] of 16 µg/mL (≈ 69.5 µM) and an MIC [4, 13] of 2 µg/mL (≈ 8.69 µM). It also gave an MIC [4, 14] of 8 µg/mL (≈ 34.7 µM), an MIC [5, 9] of 0.5 µg/mL (≈ 2.17 µM) and an MIC [5, 10] of 32 µg/mL (≈ 139 µM). It also gave an MIC [5, 11] of 0.5 µg/mL (≈ 2.17 µM), an MIC [5, 12] of 16 µg/mL (≈ 69.5 µM) and an MIC [5, 13] of 0.5 µg/mL (≈ 2.17 µM). For the same compound, the MIC [5, 14] was 0.5 µg/mL (≈ 2.17 µM), the MIC [6, 9] was 64 µg/mL (≈ 278 µM) and the MIC [6, 10] was > 64 µg/mL. For the same compound, the MIC [6, 11] was 32 µg/mL (≈ 139 µM), the MIC [6, 12] was > 64 µg/mL and the MIC [6, 13] was 32 µg/mL (≈ 139 µM). It also gave an MIC [6, 14] of 64 µg/mL (≈ 278 µM), an MIC (E. coli NUBL-22 (IMP-6); [9]) of 2 µg/mL (≈ 8.69 µM) and an MIC (E. coli NUBL-22 (IMP-6); [10]) of 16 µg/mL (≈ 69.5 µM). It also gave an MIC (E. coli NUBL-22 (IMP-6); [11]) of 1 µg/mL (≈ 4.34 µM), an MIC (E. coli NUBL-22 (IMP-6); [12]) of 16 µg/mL (≈ 69.5 µM) and an MIC (E. coli NUBL-22 (IMP-6); [13]) of 0.5 µg/mL (≈ 2.17 µM). It also gave an MIC (E. coli NUBL-22 (IMP-6); [14]) of 4 µg/mL (≈ 17.4 µM), an MIC [7, 9] of 4 µg/mL (≈ 17.4 µM) and an MIC [7, 10] of 8 µg/mL (≈ 34.7 µM). The MIC [7, 11] was 2 µg/mL (≈ 8.69 µM), the MIC [7, 12] was 2 µg/mL (≈ 8.69 µM) and the MIC [7, 13] was 0.5 µg/mL (≈ 2.17 µM). The MIC [7, 14] was 0.25 µg/mL (≈ 1.09 µM), the MIC (E. coli NUBL-24 (IMP-1); +HHIA 6.25 µg/mL, E. coli NUBL-24 (IMP-1), read-out: IPM MIC) was 4 µg/mL (≈ 17.4 µM) and the MIC (E. coli NUBL-24 (IMP-1); +HHIA 6.25 μg/mL, E. coli NUBL-24 (IMP-1), read-out: MPM MIC) was 4 µg/mL (≈ 17.4 µM). For the same compound, the MIC (E. coli NUBL-24 (IMP-1); +HHIA 25 µg/mL, E. coli NUBL-24 (IMP-1), read-out: IPM MIC) was 2 µg/mL (≈ 8.69 µM), the MIC (E. coli NUBL-24 (IMP-1); +HHIA 25 μg/mL, E. coli NUBL-24 (IMP-1), read-out: MPM MIC) was 0.5 µg/mL (≈ 2.17 µM) and the MIC (E. coli NUBL-24 (IMP-1); +HHIA 100 µg/mL, E. coli NUBL-24 (IMP-1), read-out: IPM MIC) was 1 µg/mL (≈ 4.34 µM). The MIC (E. coli NUBL-24 (IMP-1); read-out: MPM MIC) was 0.125 µg/mL (≈ 0.543 µM) and the “Zinc ions in IMP-1 after treatment” value (IMP-1 [8]) was “did not cause a significant loss of zinc ions”.
